Structures are written as SMILES.

One assay has as its target Prothrombin (Homo sapiens, UniProt P00734). The assay is described as follows: Inhibitory activity against human thrombin.
The next assay concerns the target Coagulation factor X (Homo sapiens, UniProt P00742). The assay is described as follows: Inhibition of Coagulation factor Xa.

Coagulation factor X, sequence (P00742 41-179 limits assumed): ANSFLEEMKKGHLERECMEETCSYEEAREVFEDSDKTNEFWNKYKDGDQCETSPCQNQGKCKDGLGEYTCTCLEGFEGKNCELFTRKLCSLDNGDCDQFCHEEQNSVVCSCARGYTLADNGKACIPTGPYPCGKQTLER
Coagulation factor X, sequence (P00742 235-488 limits assumed): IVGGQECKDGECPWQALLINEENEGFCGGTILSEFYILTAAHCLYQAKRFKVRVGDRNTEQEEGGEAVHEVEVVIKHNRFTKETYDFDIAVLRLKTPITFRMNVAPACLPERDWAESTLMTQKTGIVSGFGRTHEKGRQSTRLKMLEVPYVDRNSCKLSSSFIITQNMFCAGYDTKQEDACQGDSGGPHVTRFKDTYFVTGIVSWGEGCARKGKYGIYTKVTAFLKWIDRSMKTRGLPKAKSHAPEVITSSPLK

`Cc1cccc2c1cc(C(=O)NCc1cccc(C(=N)N)c1)n2Cc1cccc(C(=N)N)c1`: affinity at Prothrombin was put at a Ki of 2390 nM.

In the case of `Cc1cc(CNC(=O)c2cc3c(O)cccc3n2Cc2cccc(C(=N)N)c2)cc(C(F)(F)F)c1`, at Prothrombin, the Ki (usually a measure of affinity in units of concentration, obtained from inhibition or displacement) stood at 480 nM. With `N=C(N)c1cccc(Cn2c(C(=O)NCc3cc(C(F)(F)F)cc(C(F)(F)F)c3)cc3c(O)cccc32)c1`, the values for the Ki on Prothrombin and on Coagulation factor X were 1180 nM and 99 nM, respectively. Regarding `C[n+]1ccc(CNC(=O)c2cc3cc(N)ccc3n2Cc2cccc(C(=N)N)c2)cc1`, the Ki on Prothrombin worked out at 57000 nM; at Coagulation factor X, 100 nM.

Regarding `N=C(N)c1cccc(CNC(=O)c2c(Cl)c3ccccc3n2Cc2cccc(C(=N)N)c2)c1`, the affinity on Prothrombin corresponds to a Ki of 4240 nM.

With `CC(C)(C)OC(=O)Nc1ccc2c(c1)cc(C(=O)NCc1ccc([N+](C)(C)C)cc1)n2Cc1cccc(C(=N)N)c1`, the Ki at Prothrombin worked out at 28000 nM. Compared with the last compound, the Ki is about 6.6-fold higher. For `N=C(N)c1cccc(CNC(=O)c2c(Br)c3ccccc3n2Cc2cccc(C(=N)N)c2)c1`, the Ki on Prothrombin worked out at 3290 nM; on Coagulation factor X it was 26 nM. For `N=C(N)c1cccc(COC(=O)c2cc3ccccc3n2Cc2cccc(C(=N)N)c2)c1`, on Prothrombin, the Ki is 2460 nM. Consider `C[N+](C)(C)c1ccc(CNC(=O)c2cc3cc(Cl)ccc3n2Cc2cccc(C(=N)N)c2)cc1`, for which the Ki on Prothrombin came out at 15800 nM; at Coagulation factor X, 140 nM. The like results for `N=C(N)c1cccc(Cn2c(C(=O)NCc3cc(Cl)cc(Cl)c3Cl)cc3c(O)cccc32)c1` were, in that order, 270 nM and 99 nM. With `Cc1cccc2c1c(Br)c(C(=O)NCc1cccc(C(=N)N)c1)n2Cc1cccc(C(=N)N)c1`, the Ki on Prothrombin was determined as 2070 nM; on Coagulation factor X it was 50 nM.

Turning to `Cc1cccc2c1cc(C(=O)NCc1ccc([N+](C)(C)Cc3ccccc3)cc1)n2Cc1cccc(C(=N)N)c1`, the Ki on Prothrombin turned out to be 3900 nM; at Coagulation factor X it was 23 nM. The like results for `N=C(N)c1ccc(CNC(=O)c2cc3cc(N)ccc3n2Cc2cccc(C(=N)N)c2)cc1` were, in that order, 5600 nM and 89 nM. On to `N=C(N)c1cccc(Cn2c(C(=O)NCc3cc(F)cc(C(F)(F)F)c3)cc3c(O)cccc32)c1`, for which the values for the Ki on Prothrombin and on Coagulation factor X were 1710 nM and 39 nM, respectively. At Prothrombin, `Cc1cccc2c1cc(C(=O)NCc1cc(Cl)cc(Cl)c1)n2Cc1cccc(C(=N)N)c1` yielded a Ki of 1610 nM. As for `N=C(N)c1cccc(Cn2c(C(=O)NCc3nccc4ccccc34)cc3c(O)cccc32)c1`, the Ki on Prothrombin came to 290 nM; at Coagulation factor X, 20 nM. The compound `N=C(N)c1cccc(Cn2c(C(=O)NCc3cccc(C(N)=O)c3)cc3ccccc32)c1` registered a Ki at Coagulation factor X of 240 nM. On Coagulation factor X, `COc1ccc(CNC(=O)c2cc3c(O)cccc3n2Cc2cccc(C(=N)N)c2)cc1` yielded a Ki of 1360 nM. On to `C[C@H](NC(=O)c1cc2cc(OCc3ccccc3)ccc2n1Cc1cccc(C(=N)S)c1)c1ccccc1`, for which affinity on Coagulation factor X was put at a Ki of 4830 nM. This Ki lies about 3.6-fold higher than the previous one. Same read-out and setting: for `N=C(N)c1cccc(Cn2c(C(=O)NCC3CCCCC3)cc3c(O)cccc32)c1` the value was 1110 nM. Consider `Cc1cc(C)cc(CNC(=O)c2cc3c(C)cccc3n2Cc2cccc(C(=N)N)c2)c1`, for which the Ki at Prothrombin is 1420 nM. For `N=C(N)c1cccc(Cn2c(C(=O)NCCc3ccc(Br)cc3)cc3c(O)cccc32)c1`, the affinity at Coagulation factor X, expressed as Ki, was 1630 nM. That is a single-digit micromolar value. For `CC(NC(=O)c1cc2ccccc2n1Cc1cccc(C(=N)N)c1)c1cc[n+](C)cc1` (stereo not given), the Ki at Coagulation factor X was determined as 92 nM. Compared with the last compound, the Ki is about 18-fold lower. Compound `COc1cccc2c1cc(C(=O)NCc1ccc(-c3cc[n+](C)cc3)cc1)n2Cc1cccc(C(=N)N)c1` showed a Ki at Coagulation factor X of 110 nM.

As to `C[n+]1ccc(CCNC(=O)c2cc3ccccc3n2Cc2cccc(C(=N)N)c2)cc1`, the Ki at Coagulation factor X was found to be 1300 nM.

In turn, `N=C(N)c1cccc(Cn2c(C(=O)NCc3ccccc3Cl)cc3c(O)cccc32)c1` returned a Ki at Coagulation factor X of 1200 nM.

`N=C(N)c1cccc(Cn2c(C(=O)NCc3cc(Cl)cc(Cl)c3)c(Br)c3ccccc32)c1` registered a Ki at Coagulation factor X of 85 nM. On to `Cc1cccc2c1cc(C(=O)OCc1cccc(C(=N)N)c1)n2Cc1cccc(C(=N)N)c1`, for which, on Coagulation factor X, affinity was put at a Ki of 44 nM. The compound `N=C(N)c1ccc(CNC(=O)c2cc3c(O)cccc3n2Cc2cccc(C(=N)N)c2)cc1` yielded a Ki at Prothrombin of 4200 nM. Consider `COC(=O)c1c(C(=O)NCc2cc[n+](C)cc2)n(Cc2cccc(C(=N)N)c2)c2ccccc12`, for which the Ki on Coagulation factor X was 350 nM. This counts as sub-micromolar.

Turning to `Cc1cccc2c1cc(C(=O)NCc1nccc3ccccc13)n2Cc1cccc(C(=N)N)c1`, the inhibition constant (Ki) amounted to 200 nM on Prothrombin and 15 nM on Coagulation factor X. As to `N=C(N)c1cccc(Cn2c(C(=O)NCc3ccc(Cl)c(Cl)c3)cc3c(O)cccc32)c1`, affinity at Coagulation factor X was put at a Ki of 841 nM. On to `CC[N+](C)(C)c1ccc(CNC(=O)c2cc3cc(F)ccc3n2Cc2cccc(C(=N)N)c2)cc1`, for which the Ki on Coagulation factor X was 103 nM. The compound `C[N+](C)(C)c1ccc(CNC(=O)c2cc3c(O)cccc3n2Cc2cccc(C(=N)N)c2)cc1` returned a Ki on Prothrombin of 9090 nM.

Source of the values: ChEMBL document CHEMBL1135480, “Design and quantitative structure-activity relationship of 3-amidinobenzyl-1H-indole-2-carboxamides as potent, nonchiral, and selective inhibitors of blood coagulation factor Xa” (J Med Chem, 2002).
